Data published in patent US11214803B2, “Modulators of YAP1 expression” (Ionis Pharmaceuticals, Inc., priority 2019, dated 2022).
Strand notation (5' to 3'): a small letter for the sugar, then the base; units joined by * are phosphorothioate-linked, units joined directly phosphodiester-linked; [ ] holds rarer units or linkages, { } end groups; capitals alone tell only the bases. k = constrained ethyl (cEt); [5mC] = 5-methylcytosine; d = 2'-deoxy (DNA)

Legend:
[1] = Tolerability in Sprague-Dawley rats, plasma chemistry markers (Example 20); assay type: in vivo; conditions: male Sprague-Dawley rats, 50 mg/kg s.c. weekly for 6 weeks (7 doses), 48 hours after last dose
Protocol: Sprague-Dawley rats are a multipurpose model used for safety and efficacy evaluations. The rats were treated with Ionis modified oligonucleotides from the studies described in the Examples above and evaluated for changes in the levels of various plasma chemistry markers.

[2] = Tolerability in Sprague-Dawley rats, kidney function, urine total protein to creatinine ratio (Example 20); conditions: male Sprague-Dawley rats, 50 mg/kg subcutaneously weekly for 6 weeks (total 7 doses)
Protocol: Male Sprague-Dawley rats were maintained on a 12-hour light/dark cycle and fed ad libitum with Purina normal rat chow. Groups of 4 Sprague-Dawley rats each were weekly injected subcutaneously with 50 mg/kg of Ionis oligonucleotide for 6 weeks (total 7 doses). Forty-eight hours after the last dose, the rats were euthanized; and organs, urine and plasma were harvested for further analysis.
To evaluate the effect of Ionis oligonucleotides on kidney function, urinary levels of total protein and creatinine were measured using an automated clinical chemistry analyzer (Hitachi Olympus AU400c, Melville, N.Y.).

[3] = Tolerability in Sprague-Dawley rats, body and organ weights (Example 20); assay type: in vivo; conditions: male Sprague-Dawley rats, 50 mg/kg s.c. weekly for 6 weeks (7 doses); for Kidney weight / Liver weight / Spleen weight: end of study; for body weight: terminal, prior to necropsy
Protocol: Terminal body weight was measured prior to necropsy. Ionis oligonucleotides that caused any changes in organ weights outside the expected range for modified oligonucleotides were excluded from further studies.

[4] = Tolerability in CD-1 mice, body and organ weights (Example 17); assay type: in vivo; conditions: male CD-1 mice, 50 mg/kg s.c. twice a week for four weeks (8 treatments), end of study (day 27)
Protocol: (§1) Groups of four male CD-1 mice at 4-5 weeks of age (obtained from Charles River) were injected subcutaneously twice a week for four weeks (for a total of 8 treatments) with 50 mg/kg of modified oligonucleotides. One group of male CD-1 mice was injected with PBS. Mice were euthanized on day 27 post start of treatment (24 hrs following the final administration).
(§2) Body weights of CD-1 mice were measured at the end of the study, and the average body weight for each group is presented in the table below. Modified oligonucleotides that caused any changes in organ weights outside the expected range for modified oligonucleotides were excluded from further studies.

[5] = Tolerability in CD-1 mice, plasma chemistry markers (Example 17); assay type: in vivo; conditions: male CD-1 mice, 50 mg/kg s.c. twice a week for four weeks (8 treatments), day 27
Protocol: (§3) CD-1 mice were treated with modified oligonucleotides selected from studies described above and evaluated for changes in the levels of various plasma chemistry markers.
as §1

[6] = Tolerability in CD-1 mice, body and organ weights (Example 18); assay type: in vivo; conditions: male CD-1 mice, 50 mg/kg s.c. twice a week (total of 9 treatments), end of study (day 34)
Protocol: as §1, with “5-6” for “4-5”, “9” for “8”, “34” for “27”, “hours” for “hrs”
as §2

[7] = tested on: Yap1 mRNA; assay: Inhibition of human Yap1 mRNA in SNU449 hepatocellular carcinoma xenograft tumors (Example 26); assay type: in vivo; conditions: SNU449 xenografts in NSG mice, 50 mg/kg twice weekly for five days, relative to PBS treated animals
Protocol: A SNU449 hepatocellular carcinoma xenograft tumor model was used to evaluate activity of modified oligonucleotides targeted to human Yap1. Ten million SNU449 cells in 30% matrigel were implanted subcutaneously into the flanks of female NOD Cg-Prkdcscid ll2rgtm1Wjl/SzJ (NSG) mice (from Jackson Laboratory) at 4-6 weeks of age. When tumors reached an average volume of 100 mm^3, approximately two weeks post-implantation, groups of four mice each were administered at 50 mg/kg twice weekly with modified oligonucleotides for five days. Tumors were collected and tested for Yap1 mRNA knockdown by RT-qPCR. Yap1 mRNA levels were measured as previously described using the Human Yap1 primer-probe set RTS4814. Yap1 mRNA levels were normalized to actin-beta content, as measured by primer probe set RTS5002. Results are presented in the tables below as percent control of the amount of Yap1 mRNA relative to PBS treated animals (% control).

[8] = Tolerability in CD-1 mice, plasma chemistry markers (Example 18); assay type: in vivo; conditions: male CD-1 mice, 50 mg/kg s.c. twice a week (total of 9 treatments), day 34
Protocol: as §3
as §1, with “5-6” for “4-5”, “9” for “8”, “34” for “27”, “hours” for “hrs”

[9] = tested on: Yap1 mRNA; assay: Dose-dependent inhibition of human Yap1 in A-431 cells (Example 8, 10,000 cells per well, RTS4814); assay type: cell-based; conditions: free uptake, approximately 48 hours, RTS4814; for Yap1 mRNA, % UTC: A-431 cells, 10,000 cells per well
How it was run: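 A-431 cells (10,000/well) dosed with modified oligonucleotides by free uptake; Yap1 mRNA measured ~48 h later with primer-probe set RTS4814, normalized to total RNA (RIBOGREEN). Values are % of untreated control; IC50 from linear regression on log/linear plot.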

[10] = Tolerability in CD-1 mice, body and organ weights (Example 16); assay type: in vivo; conditions: male CD-1 mice, 50 mg/kg s.c. twice a week for four weeks (8 treatments), end of study (day 27)
Protocol: as §1, §2

[11] = tested on: Yap1 mRNA; assay: Dose-dependent inhibition of human Yap1 in SNU-449 cells (Example 9, RTS36584); assay type: cell-based; conditions: free uptake; for % UTC (Yap1 mRNA): approximately 48 hours
How it was run: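 SNU-449 cells (10,000/well) took up modified oligonucleotides by free uptake at a range of doses for about 48 h. Yap1 mRNA was quantified with primer-probe set RTS36584, normalised to RIBOGREEN total RNA and expressed as % untreated control; IC50 from linear regression on log/linear plot.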

[12] = Tolerability in CD-1 mice, plasma chemistry markers (Example 16); assay type: in vivo; conditions: male CD-1 mice, 50 mg/kg s.c. twice a week for four weeks (8 treatments), day 27
Protocol: as §3, §1

## 1097224 (k[5mC]*kT*k[5mC]*dT*dT*dA*dT*dA*dT*dG*dG*dT*dT*kT*kT*kG; antisense) [compound 1097224]
[1]
  ALB: 1.61 g/dL
  ALT: 31 U/L
  AST: 51 U/L
  BUN: 86 mg/dL
  TBIL: 0.07 mg/dL
[2]
  URINE P/C ratio (total protein to creatinine ratio): 87
[3]
  Kidney weight: 4.5 g
  Liver weight: 13 g
  Spleen weight: 1.4 g
  body weight: 316 g
[4]
  Kidney weight: 0.54 g
  Liver weight: 1.93 g
  Spleen weight: 0.16 g
  body weight: 37 g
[5]
  ALT: 39 U/L
  AST: 78 U/L
  BUN: 21 mg/dL
  TBIL: 0.09 mg/dL

## 1074755 (k[5mC]*kA*k[5mC]*dT*dT*dT*dT*dA*d[5mC]*dA*dT*dT*dA*kG*kG*kA; antisense) [compound 1074755]
[6]
  Kidney weight: 0.61 g
  Liver weight: 2.27 g
  Spleen weight: 0.19 g
  body weight: 39 g
[1]
  ALB: 2.99 g/dL
  ALT: 57 U/L
  AST: 97 U/L
  BUN: 29 mg/dL
  TBIL: 0.12 mg/dL
[2]
  URINE P/C ratio (total protein to creatinine ratio): 5
[7]
  Yap1 mRNA in tumors, % control: 70 % control
[8]
  ALT: 88 U/L
  AST: 104 U/L
  BUN: 22 mg/dL
  TBIL: 0.21 mg/dL
[3]
  Kidney weight: 3.3 g
  Liver weight: 16 g
  Spleen weight: 2.1 g
  body weight: 357 g
[9]; 31.3 nM
  Yap1 mRNA, % UTC: 28 % UTC
[9]; 125.0 nM
  Yap1 mRNA, % UTC: 9 % UTC
[9]; 500.0 nM
  Yap1 mRNA, % UTC: 5 % UTC
[9]; 2000.00 nM
  Yap1 mRNA, % UTC: 3 % UTC
[9]; A-431 cells, linear regression on log/linear plot
  IC50: < 20 nM

## 1076187 (kG*kA*kT*dT*dT*dA*dG*dG*dA*dT*dG*d[5mC]*dA*kT*kG*kG; antisense) [compound 1076187]
[10]
  Kidney weight: 0.56 g
  Liver weight: 1.95 g
  Spleen weight: 0.14 g
  body weight: 34 g
[1]
  ALB: 2.91 g/dL
  ALT: 54 U/L
  AST: 113 U/L
  BUN: 21 mg/dL
  TBIL: 0.10 mg/dL
[2]
  URINE P/C ratio (total protein to creatinine ratio): 5
[11]; 31.3 nM
  % UTC (Yap1 mRNA): 68 % UTC
[11]; 125.0 nM
  % UTC (Yap1 mRNA): 46 % UTC
[11]; 500.0 nM
  % UTC (Yap1 mRNA): 24 % UTC
[11]; 2000.00 nM
  % UTC (Yap1 mRNA): 12 % UTC
[11]; linear regression on a log/linear plot
  IC50: 100 nM
[12]
  ALT: 57 U/L
  AST: 90 U/L
  Albumin: 2.3 g/dL
  BUN: 20 mg/dL
  TBIL: 0.18 mg/dL
[3]
  Kidney weight: 3.0 g
  Liver weight: 17 g
  Spleen weight: 1.7 g
  body weight: 344 g
